Results reported in article PMC11013662, “New Thiosemicarbazide Derivatives with Multidirectional Biological Action” (Molecules, 2024).
Values after ≈ are worked out from the molar mass of the structure shown. Where two headings read alike, the source gives them in different places. One block for each compound: values may come before it.

Legend:
[1] = test system: Micrococcus luteus ATCC 10240; test: Broth microdilution MIC / MBC; type: cell-based; conditions: ATCC10240, M. luteus ATCC 10240
Description: (§1) The microdilution method was used to determine the MIC values of newly synthesized compounds. The antimicrobial activity of the thiosemicarbazides series was tested on ten reference bacterial strains purchased from the American Type Culture Collection (ATCC). Seven Gram-positive reference strains (S. aureus ATCC 29213, S. aureus ATCC 43300, S. aureus ATCC 6538, S. aureus ATCC 25923, S. epidermidis ATCC 12228, M. luteus ATCC 10240, and B. cereus ATCC 10876) and three Gram-negative reference bacteria (K. pneumoniae ATCC 13883, E. coli ATCC 25922, S. typhimurium ATCC 14028) were used. These bacterial strains are representatives of microorganisms that can cause the most common opportunistic infections among humans. The bacteria were grown on Mueller–Hinton agar (MHA) plates before examination. To perform the assay, all bacteria were placed in sterile saline (0.85% NaCl) to obtain a suspension of the optical density of the 0.5 McFarland standard (1.50 × 10^8 colony-forming units (CFUs)/mL). A solution of the tested compounds was prepared in dimethyl sulfoxide (DMSO) at a concentration of 50 mg/mL as a stock solution.
(§2) A 96-well microtiter plate and microbroth two-fold dilution method was used to determine the minimum inhibitory concentration (MIC) according to the EUCAST (European Committee on Antimicrobial Susceptibility Testing) reference recommendation. The solutions were then diluted with Mueller–Hinton broth (MHB, Biomaxima, Lublin, Poland) medium to obtain a solution with a basic concentration of 1000 µg/mL. Then, using the two-fold dilution method with MHB, the tested compounds were introduced into the wells of the microplate to provide a final concentration in the range of 0.49 to 1000 µg/mL. Then, 2 μL of bacterial inoculum with a density of 0.5 McFarland standard was added into each well. Each well was filled with a total volume of 100 μL. Then, microtiter plates were incubated for 18 ± 2 h at 35 °C. After incubation, the growth of bacteria was monitored by a Biotek ELx800 (Biokom, Janki, Poland) spectrophotometer at 600 nm (OD600). The MIC assays were performed in triplicate.
(§3) A negative control with MHB and without tested compounds was used. Clinically used anti-bacterial agents, cefuroxime and vancomycin, were included as positive controls for the purpose of comparison in a concentration range from 0.007 to 15.625 µg/mL.
(§4) The in vitro antimicrobial activity of the tested compounds was determined by the MIC, which was defined as the lowest concentration of the compound tested at which no visible growth of the test bacteria was observed. The MBC (the minimum bactericidal concentration) is defined as the lowest concentration of antimicrobial agent resulting in reduction in the viability of the initial bacterial inoculum by ≥99.9% on the plate. Generally, an MBC/MIC ratio less than 4 is considered bactericidal for an antimicrobial, and an MBC/MIC > 8 is indicative of bacteriostatic activity. For the MBC test, the Mueller–Hinton agar (MHA, Biomaxima, Poland) plate assay was used. MBC was determined after the broth dilution period of an MIC test has been completed. After the MIC detection, 5 µL aliquots from each well were plated on an MHA plate and grown at 35 °C overnight. The MBC values were determined by observing the first clear area on the agar plate that has no observable bacterial growth.

[2] = test system: Staphylococcus aureus ATCC 25923; test: Broth microdilution MIC / MBC; type: cell-based
Description: as §1, §2, §3, §4

[3] = test system: Staphylococcus epidermidis ATCC 12228; test: Broth microdilution MIC / MBC; type: cell-based; conditions: ATCC12228, S. epidermidis ATCC 12228
Description: as §1, §2, §3, §4

[4] = test system: Bacillus cereus ATCC 10876; test: Broth microdilution MIC / MBC; type: cell-based; conditions: ATCC10876, B. cereus ATCC 10876
Description: as §1, §2, §3, §4

[5] = test system: Staphylococcus aureus ATCC 6538; test: Broth microdilution MIC / MBC; type: cell-based; conditions: ATCC6538, S. aureus ATCC 6538
Description: as §1, §2, §3, §4

[6] = test system: Staphylococcus aureus ATCC 43300; test: Broth microdilution MIC / MBC; type: cell-based; conditions: ATCC 43300 / MRSA
Description: as §1, §2, §3, §4

Rhabditis sp. = test system: Rhabditis sp.; parameters: method as in PMID 35408557; conditions: reference drug; cited from earlier work
[7] = test system: V79 Chinese hamster lung cells; test: MTT cytotoxicity assay; type: cell-based; conditions: Cricetulus griseus, V 79 normal cells, 72 h
Description: Both lines were obtained from American Type Culture Collection (ATCC, Rockville, MD, USA). The culture used to grow the SW 620 cells was prepared in MEM (ThermoSci, Waltham, MA, USA). The V79 cells were cultured in RPMI (Biowest SAS, Nuaillé, France) with the addition of 20 mM HEPES (Biowest, Nuaillé, France), 10% fetal bovine serum (FBS, Sigma-Aldrich, St. Louis, MO, USA), 100 µg/mL of streptomycin, and 100 U/mL of penicillin (Gibco, Grand Island, NY, USA). The eligible level of cells confluence was 80–90%, and both cell cultures were maintained in a humidified incubator set at 37 °C with 5% CO2 until they reached it.
The MTT assay was used to establish the cytotoxic activity of the studied compounds. The mechanism of this method relies on enzymatic conversion of 3-(4,5-dimethylthiazol-2-yl)-2,5-diphentyltetrazolium bromide salt (MTT) into insoluble formazan crystals by mitochondrial dehydrogenases within viable cells.
The process starts with the preparation of 96-well plates by placing cells at a density of 1 × 10^4 per well and incubating them for 24 h to adhere. Afterwards, the cells were treated with different concentrations of thiosemicarbazide derivatives, from 20 to 100 µM, except the control group which remained not exposed. Next, cells were incubated for 72 h at 37 °C with a 5% CO2. Then, a solution of MTT (0.5 mg/mL) was added to each well and plates were incubated for 4 h more in the same conditions.
To dissolve precipitated formazan crystals, a mixture of DMSO and isopropanol (in a 1:1 ratio, v/v) was used. For the spectrophotometric survey, we used MultiscanGo from Thermo Scientific with the wavelength value set at 570 nm to measure absorbance.
Cell viability was determined as the percentage of MTT reduction in the treated cells compared to the control group (unexposed cells). The relative MTT level, represented as a percentage, was calculated using the formula [A]/[B] × 100, where [A] stands for the absorbance of the treated cell sample and [B] for the absorbance of unexposed to studied compounds sample (control group). […] To calculate IC50 values (concentration at which 50% of cell viability is inhibited), we used GraphPad Prism 8.0.1 software.

[8] = test system: SW 620 human metastatic colon cancer cells; test: MTT cytotoxicity assay; type: cell-based; conditions: Homo sapiens; SW 620, MTT, 72 h
Description: Both lines were obtained from American Type Culture Collection (ATCC, Rockville, MD, USA). The culture used to grow the SW 620 cells was prepared in MEM (ThermoSci, Waltham, MA, USA). The V79 cells were cultured in RPMI (Biowest SAS, Nuaillé, France) with the addition of 20 mM HEPES (Biowest, Nuaillé, France), 10% fetal bovine serum (FBS, Sigma-Aldrich, St. Louis, MO, USA), 100 µg/mL of streptomycin, and 100 U/mL of penicillin (Gibco, Grand Island, NY, USA). […] The MTT assay was used to establish the cytotoxic activity of the studied compounds. […] The process starts with the preparation of 96-well plates by placing cells at a density of 1 × 10^4 per well and incubating them for 24 h to adhere. […] Next, cells were incubated for 72 h at 37 °C with a 5% CO2. Then, a solution of MTT (0.5 mg/mL) was added to each well and plates were incubated for 4 h more in the same conditions. To dissolve precipitated formazan crystals, a mixture of DMSO and isopropanol (in a 1:1 ratio, v/v) was used. […] Cell viability was determined as the percentage of MTT reduction in the treated cells compared to the control group (unexposed cells). The relative MTT level, represented as a percentage, was calculated using the formula [A]/[B] × 100, where [A] stands for the absorbance of the treated cell sample and [B] for the absorbance of unexposed to studied compounds sample (control group).

MIC [1]: 0.25 µg/mL (≈ 0.589 µM)
MIC ([2]; ATCC25923, S. aureus ATCC 25923, read-out: MIC): 0.49 µg/mL (≈ 1.15 µM)
MIC [3]: 0.25 µg/mL (≈ 0.589 µM)
MIC [4]: 31.2 µg/mL (≈ 73.6 µM)
MIC [5]: 0.98 µg/mL (≈ 2.31 µM)
SMILES: CO/N=C(\C(=O)N[C@@H]1C(=O)N2C(C(=O)O)=C(COC(N)=O)CS[C@H]12)c1ccco1 [Cef, cefuroxime, reference compound]

SMILES: CN[C@H](CC(C)C)C(=O)N[C@H]1C(=O)N[C@@H](CC(N)=O)C(=O)N[C@H]2C(=O)N[C@H]3C(=O)N[C@H](C(=O)N[C@H](C(=O)O)c4cc(O)cc(O)c4-c4cc3ccc4O)[C@H](O)c3ccc(c(Cl)c3)Oc3cc2cc(c3O[C@@H]2O[C@H](CO)[C@@H](O)[C@H](O)[C@H]2O[C@H]2C[C@](C)(N)[C@H](O)[C@H](C)O2)Oc2ccc(cc2Cl)[C@H]1O [Van, vancomycin, reference compound]
MBC ([2]; ATCC25923): 2 µg/mL (≈ 1.38 µM)
MIC ([2]; ATCC25923): 2 µg/mL (≈ 1.38 µM)
MBC [6]: 2 µg/mL (≈ 1.38 µM)
MIC [6]: 2 µg/mL (≈ 1.38 µM)

SMILES: CCCSc1ccc2nc(NC(=O)OC)[nH]c2c1 [albendazole]
LC50 (Rhabditis sp.): 19200 µg/mL (≈ 72500 µM)

SMILES: COc1cccc2c1C(=O)c1c(O)c3c(c(O)c1C2=O)C[C@@](O)(C(=O)CO)C[C@@H]3O[C@H]1C[C@H](N)[C@H](O)[C@H](C)O1 [Ref, Doxorubicin, reference compound]
IC50 [7]: 460 ± 30 nM
IC50 [8]: 1830 ± 100 nM
